From patent US20090197842A1, “Therapeutic Agent for Neuropathic Pain” (JAPAN SCIENCE AND TECHNOLOGY CORPORATION, priority 2005, published 2009)

How the values were obtained:
[1] = tested on: pain hypersensitivity model rats; experiment: Mechanical stimulation test (Dynamic Plantar Aesthesiometer), pain threshold of left plantar; format: in vivo; settings: for maximum pain threshold after the administration: max pressure 15.0 g, measured 30, 60, 90 min after administration; for effect of administration on pain threshold (in words): intraperitoneal, versus 0.5 w/v % CMC-Na control, Dunnett's test
Method: (§1) As experimental animals, pain hypersensitivity model rats obtained by conducting complete ligation on L5/L6 spinal nerves of 6-week-old male rats were used.
(§2) Mechanical stimulation tests were carried out using Dynamic Plantar Aesthesiometer (37400, Ugo Basile), and thermal stimulation tests were carried out using a plantar thermal stimulation tester (Plantar Test 7370, Ugo Basile). The pain threshold of the feet of each model animal was measured, and the animals were divided into groups using Preclinical Package Version 5.0 (SAS Institute Japan), such that the pain thresholds are uniform among the groups as measured prior to administration on each day of the experiment.
(§3) The test substance was prepared as follows. The base material was ground with an agate mortar and a pestle, and 0.5 w/v % carboxyrnethylcellulose sodium (CMC-Na) as a medium was gradually added thereto to form a uniform suspension. The concentration of the liquid to be administered was adjusted with a graduated cylinder or a volumetric flask, only before use.
(§4) The purpose of administering the test substance is to ascertain the direct effect on spinal cord. Since the test substance had been confirmed to pass through the brain barrier, a simple intraperitoneal administration was used. The test substance in a volume of 5 ml/kg was intraperitoneally administered using a syringe barrel and a needle.
Groups each including five pain hypersensitivity model male rats (355.8 to 457.9 g) were used. Before administration of ICI182.780, and at 30 minutes, 60 minutes and 90 minutes after administration of ICI182.780, the pain threshold of the left plantar of each rat was measured using a stimulating apparatus which had been set such that the maximum pressure would be 15.0 g and the maximum pressure would be reached in 20 seconds.
Groups each including five pain hypersensitivity model male rats (290.3 to 354.8 g) were used. Before administration of 17β-estradiol, and at 30 minutes, 60 minutes and 90 minutes after administration of 17β-estradiol, the pain threshold of the left plantar of each rat was measured using a stimulating apparatus which had been set such that the maximum pressure would be 15.0 g and the maximum pressure would be reached in 20 seconds.
Groups each including five pain hypersensitivity model male rats (294.8 to 415.4 g) were used. Before administration of 17β-estradiol+ICI128.780, and at 30 minutes, 60 minutes and 90 minutes after administration of 17β-estradiol+ICI182.780, the pain threshold of the left plantar of each rat was measured using a stimulating apparatus which had been set such that the maximum pressure would be 15.0 g and the maximum pressure would be reached in 20 seconds.
Groups each including five pain hypersensitivity model male rats (333.7 to 408.3 g) were used. Before administration of fluocinolone acetonide, and at 30 minutes, 60 minutes and 90 minutes after administration of fluocinolone acetonide, the pain threshold of the left plantar of each rat was measured using a stimulating apparatus which had been set such that the maximum pressure would be 15.0 g and the maximum pressure would be reached in 20 seconds.
Groups each including five pain hypersensitivity model male rats (261.4 to 320.9 g) were used. Before administration of triamcinolone acetonide, and at 30 minutes, 60 minutes and 90 minutes after administration of triamcinolone acetonide, the pain threshold of the left plantar of each rat was measured using a stimulating apparatus which had been set such that the maximum pressure would be 15.0 g and the maximum pressure would be reached in 20 seconds.

[2] = tested on: pain hypersensitivity model rats; experiment: Thermal stimulation test (plantar thermal stimulation tester), pain threshold of left plantar; format: in vivo; settings: thermal stimulation intensity 35; for maximum pain threshold after the administration: measured 30, 60, 90 min after administration
Method: as §1, §2, §3, §4
Groups each including five pain hypersensitivity model male rats (282.0 to 452.4 g) were used. Before administration of 17β-estradiol+ICI128.780, and at 30 minutes, 60 minutes and 90 minutes after administration of 17β-estradiol+ICI182.780, the pain threshold of the left plantar of each rat was measured using a plantar thermal stimulating apparatus set to a thermal stimulation intensity of […].
Groups each including five pain hypersensitivity model male rats (320.0 to 449.6 g) were used. Before administration of fluocinolone acetonide, and at 30 minutes, 60 minutes and 90 minutes after administration of fluocinolone acetonide, the pain threshold of the left plantar of each rat was measured using a plantar thermal stimulating apparatus set to a thermal stimulation intensity of 35.

[3] = tested on: neuropathic pain model mice; settings: J. Neurosci. 2004, 2005; cited from earlier work

Structure (SMILES) | maximum pain threshold after the administration ([1]; 0.3 mg/kg intraperitoneal) | maximum pain threshold after the administration ([1]; 3 mg/kg intraperitoneal) | maximum pain threshold after the administration ([1]; 30 mg/kg intraperitoneal) | effect of administration on pain threshold (in words) [1] | maximum pain threshold after the administration ([1]; 10 mg/kg intraperitoneal) | maximum pain threshold after the administration ([2]; 0.3 mg/kg intraperitoneal) | maximum pain threshold after the administration ([2]; 3 mg/kg intraperitoneal) | maximum pain threshold after the administration ([2]; 10 mg/kg intraperitoneal) | effect of administration on pain threshold (in words) ([2]; intraperitoneal, versus 0.5 w/v % CMC-Na control) | analgesic action against neuropathic pain [3]
C[C@]12CC[C@@H]3c4ccc(O)cc4CC[C@H]3[C@@H]1CC[C@@H]2O [17β-estradiol] | 8.1 g | 9.4 g | 10.4 g | significantly increased the pain threshold | – | – | – | – | – | –
C[C@]12CC[C@@H]3c4ccc(O)cc4C[C@@H](CCCCCCCCC[S+]([O-])CCCC(F)(F)C(F)(F)F)[C@H]3[C@@H]1CC[C@@H]2O (stereo partly drawn) [ICI182.780, 7α-17β-[9-[(4,4,5,5,5-pentafluoropentyl)sulphinyl]nonyl]estra-1,3,5(10)-trien-3,17-diol] | 6.7 g | 8.7 g | 10.6 g | significantly increased the pain threshold | – | – | – | – | – | –
CC1(C)O[C@@H]2C[C@H]3[C@@H]4C[C@H](F)C5=CC(=O)C=C[C@]5(C)[C@@]4(F)[C@@H](O)C[C@]3(C)[C@]2(C(=O)CO)O1 [fluocinolone acetonide] | 7.5 g | 11.3 g | – | significantly increased the pain threshold | 11.6 g | 8.0 s | 9.9 s | 9.9 s | significantly increased the pain threshold | –
CC#C[C@]1(O)CC[C@H]2[C@@H]3CCC4=CC(=O)CCC4=C3[C@@H](c3ccc(N(C)C)cc3)C[C@@]21C [mifepristone] | – | – | – | – | – | – | – | – | – | exhibited an analgesic action against neuropathic pain
CC1(C)O[C@@H]2C[C@H]3[C@@H]4CCC5=CC(=O)C=C[C@]5(C)[C@@]4(F)[C@@H](O)C[C@]3(C)[C@]2(C(=O)CO)O1 [triamcinolone acetonide] | 6.6 g | 8.1 g | 8.8 g | – | – | – | – | – | – | –
